# Oligonucleotides are written 5' to 3', each unit as a sugar letter and its base; * is a phosphorothioate linkage, no mark a phosphodiester; rarer units and linkages stand in square brackets, end groups in braces. Plain capitals give the bases only. d = 2'-deoxy (DNA)
# Key:
# chronic active UC = conditions: cited from earlier work
# [1] = Chemical stability assessment of core formulations (HPLC assay and related substances); assay type: physicochemical; conditions: reference raw material
# Experimental: The bulk mixes were assessed physically and chemically initially and following four weeks of storage at 40° C./75% RH. For the physical assessments, samples were assessed visually for appearance changes, focusing on colour and physical behaviour.
# The samples were run on an X Bridge BEH C18, 2.5 μm, 4.6 mm×50 mm column with a flow rate of 0.4 ml/min at 60° C., a run time of 60 minutes and a detection wavelength of 260 nm. The sample injection volume was […] with a sampler temperature of 5° C. The mobile phase compositions were as follows: • Mobile phase A 3% Acetonitrile in 0.2% TEA, 1% HFIP, • Mobile phase B 12% Acetonitrile in 0.2% TEA, 1% HFIP, • Mobile phase C Acetonitrile, • Mobile phase D water.
# [2] = Cobitolimod suspension limit in Capryol only; assay type: physicochemical; conditions: corresponding to 13-14% cobitolimod in Capryol PGMC
# Experimental: The cobitolimod suspension limit in Capryol only was assessed by repeating the steps of (i) adding the API to Capryol, (ii) spatula stirring and (iii) sonication, until the suspension became unworkable due to, for example, being too viscous, agglomerates forming that would not break down etc.
# [3] = observed during manufacture of Example 3 formulation
# Experimental: The vials were then high shear mixed for a minimum of 2×2 minutes then allowed to settle, all had visible insoluble material, therefore the samples were then high shear mixed for a further 2 minutes and visually assessed before samples taken for pH analysis. pH analysis involved centrifuging the sample at 14000 RPM for 10 minutes to separate out the insoluble material and then diluting 1 g of the clear supernatant with 3 g of deionised water, mixing thoroughly and measuring the pH.
# UC = conditions: versus placebo; cited from earlier work
compound,measurement,setting,value
5′-G*G*A*ACAGTTCGTCCAT*G*G*C-3′ (DNA dG*dG*dA*dAdCdAdGdTdTdCdGdTdCdCdAdT*dG*dG*dC) [cobitolimod],safety and tolerability,"chronic active UC; human, in vivo",safe and well tolerated
same,clinical efficacy,chronic active UC; patients with chronic active UC,effective to induce clinical response and remission
same,impurity level,[1],5.3 area %
same,limit of suspendability expressed per capsule,[2],approx. 53 mg cobitolimod/capsule
NC(CO)(CO)CO [tromethamine],solubility of tromethamine in Capryol PGMC,[3],some insolubility
vedolizumab: α4β7 integrin inhibitor approved for the treatment of UC,"inducing and maintaining clinical response, clinical remission, and mucosal healing",UC,more effective than placebo

# From patent publication US11596608B2, “Formulation” (INDEX PHARMACEUTICALS AB, priority 2018, dated 2023)
